Experimental data: patent US20100257640A1, “METHOD FOR GROWING SUGARCANE” (SYNGENTA CROP PROTECTION, INC., priority 2007, published 2010)

Legend:
[1] = tested on: sugar cane Variety RB 86-7515; assay: Greenhouse pot test: effect of formulated fipronil on vigour; assay type: in vivo; conditions: result in words
Procedure: Greenhouse test with sugarcane buds growing in pots were conducted to study the effect of fipronil equivalent to an application rate of 200 g. ha^−1 on “vigour”, evaluating tillers, plant height, leaf width and culm diameter on sugar cane Variety RB 86-7515.
Twenty 1 L pots were filled with 16 L of clay soil, 1.6 L of sand and 8 g of nitrogen, 28 g of phosphorus (P2O5) and 16 g of potassium (K2O). Six carretels of 4 cm length with one bud were planted in each pot (treatments 1, 2, 4 and 5). Two stalks with three buds were planted in each control pot (treatments 3 and 6) to simulate conventional planting. A layer of 3 cm of soil was used to cover the carretels. The carretels of treatments 1 and 2 were treated with 200 g ai.ha^−1 of fipronil, by dipping the carretels in the slurry for 3 min, based on the uptake capacity of carretels. The stalks were treated simulating a furrow application at 100 L.ha^−1 of slurry. Experimental design adopted was randomized complete block with four replications. The pots were maintained with adequate moisture during the test. Evaluations of: plant height, leaf width, culm diameter and number of tillers were done at 20, 30 and 42 days after planting.

[2] = tested on: sugar cane Variety RB 86-7515; assay: Greenhouse pot test: effect of formulated clothianidin on vigour; assay type: in vivo; conditions: carretels; result in words
Procedure: Greenhouse test with sugarcane buds growing in pots were conducted to study the effect of clothianidin equivalent to an application rate of 200 g ai. ha^−1 on “vigour”, evaluating tillers, plant height, leaf width and culm diameter. This trial was conducted on sugar cane Variety RB 86-7515.
1) carretel with one bud treated with clothianidin (200 g ai. ha^−1) 2) carretel with one bud treated with clothianidin (200 g ai. ha^−1)+15% v/v of polymer 3) stalk with 3 buds untreated 4) carretel with one bud untreated+15% v/v of polymer 5) carretel with one bud untreated 6) stalk with 3 buds treated with clothianidin (200 g ai. ha^−1).
Twenty 1 L pots were filled with 16 L of clay soil, 1.6 L of sand and 8 g of nitrogen, 28 g of phosphorus (P2O5) and 16 g of potassium (K2O). Six carretels of 4 cm length with one bud were planted in each pot (treatments 1, 2, 4 and 5). Two stalks with three buds were planted in each control pot (treatments 3 and 6) to simulate conventional planting. A layer of 3 cm of soil was used to cover the carretels. The carretels of treatments 1 and 2 were treated with 200 g ai.ha^−1 of clothianidin, by dipping the carretels in a slurry for 3 min. The stalks were treated simulating a furrow application at 100 L.ha^−1 of slurry. The pots were maintained with adequate moisture during the test. […]

Variety RB 86-7515 = assay: Greenhouse pot test: effect of formulated thiamethoxam on vigour; assay type: in vivo, sugarcane
Procedure: This trial was conducted on Variety RB 86-7515.

[3] = tested on: sugar cane Variety RB 86 7515; assay: Greenhouse pot test: effect of formulated imidacloprid on vigour; assay type: in vivo; conditions: result in words
Source text: 1) carretel with one bud treated with Imidacloprid (1200 g. ha^−1) 2) carretel with one bud treated with Imidacloprid (1200 g. ha^−1)+15% v/v of polymer 3) stalk with 3 buds untreated 4) carretel with one bud untreated 5) carretel with one bud untreated+15% v/v of polymer 6) stalk with 3 buds treated with Imidacloprid (1200 g. ha^−1).
Twenty 1 L pots were filled with 16 L of clay soil, 1.6 L of sand and 8 g of nitrogen, 28 g of phosphorus (P2O5) and 16 g of potassium (K2O). Six carretels of 4 cm length with one bud were planted in each pot (treatments 1, 2, 4 and 5). Two stalks with three buds were planted in each control pot (treatments 3 and 6) to simulate conventional planting. A layer of 3 cm of soil was used to cover the carretels. The carretels of treatments 1 and 2 were treated with 1200 g ai.ha^−1 of imidacloprid, by dipping the carretels in the slurry for 3 min, based on the uptake capacity of carretels. The stalks were treated simulating a furrow application at 100 L.ha^−1 of slurry. Experimental design adopted was randomized complete block with four replications. The pots were maintained with adequate moisture during the test. Evaluations of: plant height, leaf width, culm diameter and number of tillers were done at 20, 30 and 42 days after planting.

[4] = tested on: sugar cane Variety RB 86-7515; assay: Greenhouse pot test: effect of formulated abamectin on vigour (tillers, plant height, leaf width, culm diameter); assay type: in vivo
Procedure: Greenhouse test with sugarcane buds growing in pots were conducted to study the effect of formulated abamectin regarding “vigour”, tillers, plant height, leaf width and culm diameter on sugar cane Variety RB 86-7515.
1) carretel with one bud treated with abamectin 2) carretel with one bud treated with abamectin+15% v/v of polymer 3) stalk with 3 buds untreated 4) carretel with one bud untreated 5) carretel with one bud untreated+15% v/v of polymer 6) stalk with 3 buds treated with abamectin.
Twenty 1 L pots were filled with 16 L of clay soil, 1.6 L of sand and 8 g of nitrogen, 28 g of phosphorus (P2O5) and 16 g of potassium (K2O). Six carretels of 4 cm length with only one bud were planted in each pot (treatments 1, 2, 4 and 5). Two stalks with three buds were planted in each control pot (treatments 3 and 6) to simulate conventional planting. A layer of 3 cm of soil was used to cover the carretels. The carretels of treatments 1, 2 were treated with 200 ml/ha of abamectin, by dipping the carretels in the slurry for 3 min, based on the uptake capacity of carretels. The stalks were treated simulating a furrow application at 100 L.ha^−1 of slurry. Experimental design adopted was randomized complete block with four replications. The pots were maintained with adequate moisture during the test. […]

N#Cc1nn(-c2c(Cl)cc(C(F)(F)F)cc2Cl)c(N)c1[S+]([O-])C(F)(F)F (stereo not shown) [Fipronil, fipronil] was tested, and the “height of the resultant plants in comparison with the control” value [1] was “decreased the height of the resultant plants in comparison with the control” and the “number of tillers in comparison with the control” value (shortened to “number … with the control”) [1] was “increased the number of tillers present on the plants”.
With CN/C(=N\[N+](=O)[O-])NCc1cnc(Cl)s1 [Clothianidin, clothianidin] the “number of tillers in comparison with the corresponding control (untreated, one-bud)” value [2] was “increased number of tillers” and the “plant height in comparison with the corresponding control (untreated, one-bud)” value [2] was “slight reduction in the plant height”.
CN1COCN(Cc2cnc(Cl)s2)/C1=N\[N+](=O)[O-] [Thiamethoxam, thiamethoxam] was tested, and the “increase in "quality"” value (Variety RB 86-7515; against the other treatments, not apparent from the listed parameters) was “greater than the other treatments”, the “number of tillers in comparison with the corresponding controls” value (Variety RB 86-7515; carretels, result in words) was “increased number of tillers” and the “plant height in comparison with the corresponding controls” value (Variety RB 86-7515; carretels, result in words) was “reduced plant height”.
In the case of O=[N+]([O-])NC1=NCCN1Cc1ccc(Cl)nc1 [Imidacloprid, imidacloprid], the “number … with the control” value [3] is reported as “increase in the number of tillers in comparison with the control”.
In the case of abamectin, the Tillers ([4]; carretel with one bud, dipped 3 min, 100 g ai/ha (Untreated + Polymer 0.0), polymer 15% v/v where named, 42 days after planting) is reported as 14 number and the “number … with the control” value ([4]; result in words) is reported as “increase in the number of tillers in comparison with the control”.
